In patent US20260256794A1, “Oral Dynamine Formulations and Methods Therefor” (Ortho-Nutra, LLC, priority 2023, published 2026):

Tests used:
subjects [1] = test: VAS-Energy; format: in vivo, human; parameters: VAS-Energy rating, Mean / VAS-Energy changes from baseline, Mean Difference ± SE / VAS-Energy Δ, Mean Difference ± SE / VAS-Energy area under the curve, Mean Difference ± SE / VAS-Energy area under the curve, Mean: scale not given here; conditions: for VAS-Energy Δ, effect size d / VAS-Energy Δ from 0 min, Mean / VAS-Energy Δ, Mean Difference ± SE: females; for VAS-Energy Δ, effect size d: vs placebo; for VAS-Energy Δ, Mean Difference ± SE: B vs A (placebo)
Description: (§1) The inventors have discovered various compositions and methods of improving various indices of neurological and neuroenergetic functions by administering 100 mg (once daily) dosages of DYNAMINE™ (dosage between 1.0 and 1.4 mg/kg) as described in the following:
(§2) All neuroenergetic tests as listed below were performed and data were collected after 0 and 4 days of assigned supplements (with acute effects also measured at day 4 over 180 minutes):
(§3) All VAS Measurement (Energy, Sustained Energy, Mental Stamina, Ability to Focus, Ability to Concentrate, Motivation to Accomplish Difficult Tasks, Drive, Vigor, Level of Positive Outlook, Mood, Feelings of Well-Being, Tolerate Stress); Day 0: Two tests were completed. The average of both scores was computed and this value was used in all statistical analysis. Day 4 (0 minutes after ingesting dose #4): Two tests were completed. The average of both scores was computed and this value was used in all statistical analysis. Day 4 (60, 120, and 180 minutes after ingesting dose #4): One test was completed at each time point.
(§4) Neuroenergic parameters are inherently subjective, nevertheless significant in human behavior and well-being. To allow for a standardization among different subjects, the following experiments were performed using a visual analog scale using anchor statements (lowest possible/highest possible) in which subjects were asked to rate their subjective experience with respect to the specific neuroenergic parameters tested.
VAS-Energy: In this subjective test, subjects were asked to rate their personal level of energy on a VAS scale using the prompt of “My level of energy right now is . . . ” (with rating lowest possible to highest possible)”. Results were collected as noted above and Table 2 provides exemplary results for Day 0 versus Day 4 ratings, whereas Table 3 provides exemplary acute results measured at Day 4 over a duration of 180 minutes.

subjects [2] = test: VAS-Ability to concentrate; format: in vivo, human; parameters: VAS-Ability to concentrate rating, Mean / VAS-Ability to concentrate changes from baseline, Mean Difference ± SE / VAS-Ability to concentrate area under the curve, Mean Difference ± SE / VAS-Ability to concentrate area under the curve, Mean: scale not given here
Description: as §1, §2, §3, §4
VAS-Ability to concentrate: In this subjective test, subjects were asked to rate their personal level of energy on a VAS scale using the prompt of “My ability to concentrate right now is . . . ” (with rating lowest possible to highest possible)”. Results were collected as noted above and Table 16 provides exemplary results for Day 0 versus Day 4 ratings, whereas Table 17 provides exemplary acute results measured at Day 4 over a duration of 180 minutes.

[3] = cited from earlier work
subjects [4] = test: VAS-Drive; format: in vivo, human; parameters: VAS-Drive rating, Mean / VAS-Drive changes from baseline, Mean Difference ± SE: scale not given here; VAS-Drive area under the curve, Mean Difference ± SE / VAS-Drive area under the curve, Mean: unit not given here
Description: as §1, §2, §3, §4
VAS-Drive: In this subjective test, subjects were asked to rate their personal level of energy on a VAS scale using the prompt of “My drive right now is . . . ” (with rating lowest possible to highest possible)”. Results were collected as noted above and Table 22 provides exemplary results for Day 0 versus Day 4 ratings, whereas Table 23 provides exemplary acute results measured at Day 4 over a duration of 180 minutes.

subjects [5] = test: Hemodynamics: heart rate; format: in vivo, human
Description: Hemodynamics Systolic Blood Pressure, Diastolic Blood Pressure, Heart Rate were taken Pre and Post Stroop Test on Day 0; Pre and Post Stroop Test after 4 Days of Supplementation 0, 60, 120, and 180 minutes after ingestion of 4th dose.
For hemodynamic parameters, systolic blood pressure, diastolic blood pressure, and heart rate were taken pre- and post-Stroop Test on Day 0, and pre- and post-Stroop Test after 4 Days of Supplementation 0, 60, 120, and 180 minutes after ingestion of 4th dose.

[6] = 100 mg once daily, Day 4, 0-180 min
[7] = 100 mg once daily, Day 4, 0-180 min, vs Group A (placebo)
[8] = 100 mg once daily, Day 4, 0 min after dose #4
[9] = 100 mg once daily, Day 4, 60 min-0 min, vs Group A (placebo)
[10] = 100 mg once daily, Day 4, 60 min after dose #4
[11] = 100 mg once daily, Day 4, 120 min-0 min, vs Group A (placebo)
[12] = 100 mg once daily, Day 4, 120 min after dose #4
[13] = 100 mg once daily, Day 4, 180 min-0 min, vs Group A (placebo)
[14] = 100 mg once daily, Day 4, 180 min after dose #4
[15] = 100 mg once daily, Day 4, Δ @ 60 min
[16] = 100 mg once daily, Day 4, Δ @ 120 min
[17] = 100 mg once daily, Day 4, Δ @ 180 min

COc1nc2c(c(=O)n1C)n(C)c(=O)n2C [methylliberine, 2-methoxy-1,7,9-trimethylpurine-6,8-dione]
VAS-Energy area under the curve, Mean (subjects [1]; [6]): 1115 | VAS-Energy area under the curve, Mean Difference ± SE (subjects [1]; [7]): 49.6 ± 36.3 | VAS-Energy area under the curve, effect size d (subjects [1]; [7]): 0.15 | VAS-Energy rating, Mean (subjects [1]; [8]): 5.8 | VAS-Energy changes from baseline, Mean Difference ± SE (subjects [1]; [9]): 0.24 ± 0.22 | VAS-Energy changes from baseline, effect size d (subjects [1]; [9]): 0.28 | VAS-Energy rating, Mean (subjects [1]; [10]): 6.2 | VAS-Energy changes from baseline, Mean Difference ± SE (subjects [1]; [11]): −0.14 ± 0.27 | VAS-Energy changes from baseline, effect size d (subjects [1]; [11]): −0.14 | VAS-Energy rating, Mean (subjects [1]; [12]): 6.2 | VAS-Energy changes from baseline, Mean Difference ± SE (subjects [1]; [13]): 0.28 ± 1.24 | VAS-Energy changes from baseline, effect size d (subjects [1]; [13]): 0.28 | VAS-Energy rating, Mean (subjects [1]; [14]): 6.5 | VAS-Energy rating, Mean (subjects [1]; Day 0 (before supplementation)): 5.5 | VAS-Energy Δ, effect size d (subjects [1]; 100 mg once daily, Day 4, 60 min): 0.81 | VAS-Energy Δ, effect size d (subjects [1]; 100 mg once daily, Day 4, 120 min): 0.69 | VAS-Energy Δ, effect size d (subjects [1]; 100 mg once daily, Day 4, 120 min, listed as B): −0.03 | VAS-Energy Δ, effect size d (subjects [1]; 100 mg once daily, Day 4, 180 min): 0.69 | VAS-Energy Δ from 0 min, Mean (subjects [1]; [15]): 0.66 | VAS-Energy Δ, Mean Difference ± SE (subjects [1]; [15]): 0.72 ± 0.23 | VAS-Energy Δ from 0 min, Mean (subjects [1]; [16]): 0.42 | VAS-Energy Δ, Mean Difference ± SE (subjects [1]; [16]): −0.03 ± 0.38 | VAS-Energy Δ from 0 min, Mean (subjects [1]; [17]): 1.08 | VAS-Energy Δ, Mean Difference ± SE (subjects [1]; [17]): 0.73 ± 1.11 | VAS-Ability to concentrate area under the curve, Mean (subjects [2]; [6]): 1162 | VAS-Ability to concentrate area under the curve, Mean Difference ± SE (subjects [2]; [7]): 48.1 ± 38.7 | VAS-Ability to concentrate area under the curve, effect size d (subjects [2]; [7]): 0.16 | VAS-Ability to concentrate rating, Mean (subjects [2]; [8]): 5.9 | VAS-Ability to concentrate changes from baseline, Mean Difference ± SE (subjects [2]; [9]): 0.26 ± 0.26 | VAS-Ability to concentrate changes from baseline, effect size d (subjects [2]; [9]): 0.28 | VAS-Ability to concentrate rating, Mean (subjects [2]; [10]): 6.5 | VAS-Ability to concentrate changes from baseline, Mean Difference ± SE (subjects [2]; [11]): 0.15 ± 0.27 | VAS-Ability to concentrate changes from baseline, effect size d (subjects [2]; [11]): 0.14 | VAS-Ability to concentrate rating, Mean (subjects [2]; [12]): 6.5 | VAS-Ability to concentrate changes from baseline, Mean Difference ± SE (subjects [2]; [13]): 0.70 ± 0.23 | VAS-Ability to concentrate changes from baseline, effect size d (subjects [2]; [13]): 0.68 | VAS-Ability to concentrate rating, Mean (subjects [2]; [14]): 6.8 | VAS-Ability to concentrate rating, Mean (subjects [2]; Day 0 (before supplementation)): 5.9 | effect on pharmacokinetics of caffeine ([3]; methylliberine 100 mg administered in combination with caffeine 150 mg): will alter pharmacokinetic effects of caffeine | half-life ([3]; oral, 25 mg and 100 mg, healthy subjects): 1 to 1.4 h | VAS-Drive area under the curve, Mean (subjects [4]; [6]): 1110 | VAS-Drive area under the curve, Mean Difference ± SE (subjects [4]; [7]): 20.4 ± 37.8 | VAS-Drive area under the curve, effect size d (subjects [4]; [7]): 0.06 | VAS-Drive rating, Mean (subjects [4]; [8]): 5.9 | VAS-Drive changes from baseline, Mean Difference ± SE (subjects [4]; [9]): −0.06 ± 0.27 | VAS-Drive changes from baseline, effect size d (subjects [4]; [9]): −0.07 | VAS-Drive rating, Mean (subjects [4]; [10]): 6.1 | VAS-Drive changes from baseline, Mean Difference ± SE (subjects [4]; [11]): −0.16 ± 0.28 | VAS-Drive changes from baseline, effect size d (subjects [4]; [11]): −0.15 | VAS-Drive rating, Mean (subjects [4]; [12]): 6.2 | VAS-Drive changes from baseline, Mean Difference ± SE (subjects [4]; [13]): 0.33 ± 0.35 | VAS-Drive changes from baseline, effect size d (subjects [4]; [13]): 0.26 | VAS-Drive rating, Mean (subjects [4]; [14]): 6.4 | VAS-Drive rating, Mean (subjects [4]; Day 0 (before supplementation)): 5.8 | Heart rate, Mean (subjects [5]; 100 mg once daily, Day 4): 69.8 beats/min | Heart rate, Mean (subjects [5]; Day 0 (before supplementation)): 71.4 beats/min
